Results from patent US12415803B2, “Fused imidazopyridines as reversible inhibitors of Brutons Tyrosine Kinase (BTK)” (Merck Patent GmbH, priority 2018, dated 2025).

Columns and labels:
full-length human BTK = full-length human BTK (Homo sapiens (Human), UniProt Q06187); assay: BTK IC50 Enzyme Assay (microfluidic off-chip mobility shift kinase assay); type: biochemical; details: Btk Enzymatic IC50 Assay, 90 min at 27 C;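 note: Read-out separates phosphorylated peptide product from substrate by their charge-to-mass difference, with IC50 fitted from log inhibitor concentration against percent enzyme activity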
full-length human BTK, sequence (Q06187 whole entry): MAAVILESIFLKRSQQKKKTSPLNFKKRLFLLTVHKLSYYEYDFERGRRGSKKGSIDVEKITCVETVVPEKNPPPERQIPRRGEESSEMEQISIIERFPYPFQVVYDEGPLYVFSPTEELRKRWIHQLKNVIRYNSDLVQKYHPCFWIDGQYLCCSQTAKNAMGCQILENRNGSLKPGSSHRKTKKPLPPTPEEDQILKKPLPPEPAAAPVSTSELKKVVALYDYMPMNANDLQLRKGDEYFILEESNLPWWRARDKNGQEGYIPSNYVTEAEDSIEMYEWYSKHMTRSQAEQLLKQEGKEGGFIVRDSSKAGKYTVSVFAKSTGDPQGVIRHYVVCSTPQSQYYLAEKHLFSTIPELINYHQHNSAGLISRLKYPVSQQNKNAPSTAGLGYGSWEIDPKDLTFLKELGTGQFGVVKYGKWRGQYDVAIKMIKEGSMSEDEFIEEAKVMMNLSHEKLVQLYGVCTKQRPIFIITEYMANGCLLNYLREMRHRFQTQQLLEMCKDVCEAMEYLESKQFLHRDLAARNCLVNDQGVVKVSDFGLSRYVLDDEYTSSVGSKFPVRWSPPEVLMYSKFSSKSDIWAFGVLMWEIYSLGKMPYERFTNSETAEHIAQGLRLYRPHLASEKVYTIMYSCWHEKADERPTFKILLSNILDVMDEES

Btk [1] = molecular target: T1, Btk (Homo sapiens (Human), UniProt Q06187); assay: Btk PBMC IC50 Cell Assay (anti-IgM-induced CD69 expression on B cells); type: cell-based; details: anti-IgM-induced CD69 expression on CD19 positive cells in human PBMCs;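 note: freshly isolated human PBMCs, IC50 from concentration-response of the share of CD19+ cells expressing CD69 after anti-IgM BCR stimulation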
T1 sequence (Q06187 whole entry): as above

Btk [2] = molecular target: T1, Btk; assay: Time Dependent Human Whole Blood IC50 Assay; type: cell-based; details: read-out: Assay C (IC50)

IC50 (full-length human BTK) [µM]	IC50 (Btk [1]) [µM]	IC50 (Btk [2]) [µM]	SMILES
0.001 to 0.01	0.001 to 0.01	0.001 to 0.01	Cc1nn(C(C)C)cc1-c1nc2c(-c3ccc4c(c3)CCCCC4NC(=O)c3nc(C(C)(C)C)no3)ccnc2[nH]1 (stereo not drawn) [Compound 132, 3-tert-Butyl-[1,2,4]oxadiazole-5-carboxylic acid {2-[2-(1-isopropyl-3-methyl-1H-pyrazol-4-yl)-3H-imidazo[4,5-b]pyridin-7-yl]-6,7,8,9-tetrahydro-5H-benzocyclohepten-5-yl}-amide]
< 0.001	0.001 to 0.01	0.001 to 0.01	Cc1nn(C(C)C)cc1-c1nc2c(-c3ccc4c(c3)CCCCC4NC(=O)c3nc(C4(C)CC4)no3)ccnc2[nH]1 (stereo not drawn) [Compound 134, 3-(1-Methyl-cyclopropyl)-[1,2,4]oxadiazole-5-carboxylic acid {2-[2-(1-isopropyl-3-methyl-1H-pyrazol-4-yl)-3H-imidazo[4,5-b]pyridin-7-yl]-6,7,8,9-tetrahydro-5H-benzocyclohepten-5-yl}-amide]
< 0.001	0.001 to 0.01	0.001 to 0.01	CCn1nc(C)c(-c2nc3c(-c4ccc5c(c4)CCCCC5NC(=O)c4nc(C5(C)CC5)no4)ccnc3[nH]2)c1C (stereo not drawn) [Compound 135, 3-(1-Methyl-cyclopropyl)-[1,2,4]oxadiazole-5-carboxylic acid {2-[2-(1-ethyl-3,5-dimethyl-1H-pyrazol-4-yl)-3H-imidazo[4,5-b]pyridin-7-yl]-6,7,8,9-tetrahydro-5H-benzocyclohepten-5-yl}-amide]
< 0.001	0.001 to 0.01	0.01 to 0.1	Cc1c(-c2nc3c(-c4ccc5c(c4)CCCCC5NC(=O)c4nc(C(C)(C)C)no4)ccnc3[nH]2)cnn1C(C)C (stereo not drawn) [Compound 136, 3-tert-Butyl-[1,2,4]oxadiazole-5-carboxylic acid {2-[2-(1-isopropyl-5-methyl-1H-pyrazol-4-yl)-3H-imidazo[4,5-b]pyridin-7-yl]-6,7,8,9-tetrahydro-5H-benzocyclohepten-5-yl}-amide]
< 0.001	0.001 to 0.01	0.01 to 0.1	Cc1nn(C)c(C)c1-c1nc2c(-c3ccc4c(c3)CCCCC4NC(=O)c3nc(C4(C)CC4)no3)ccnc2[nH]1 (stereo not drawn) [Compound 143, 3-(1-Methyl-cyclopropyl)-[1,2,4]oxadiazole-5-carboxylic acid {2-[2-(1,3,5-trimethyl-1H-pyrazol-4-yl)-3H-imidazo[4,5-b]pyridin-7-yl]-6,7,8,9-tetrahydro-5H-benzocyclohepten-5-yl}-amide]
< 0.001	0.01 to 0.1	0.01 to 0.1	Cc1c(-c2nc3c(-c4ccc5c(c4)CCCC5NC(=O)c4nc(C5(C)CC5)no4)ccnc3[nH]2)cnn1C1CCOCC1 (stereo not drawn) [Compound 148, 3-(1-Methyl-cyclopropyl)-[1,2,4]oxadiazole-5-carboxylic acid (6-{2-[5-methyl-1-(tetrahydro-pyran-4-yl)-1H-pyrazol-4-yl]-3H-imidazo[4,5-b]pyridin-7-yl}-1,2,3,4-tetrahydro-naphthalen-1-yl)-amide]
< 0.001	0.001 to 0.01	0.01 to 0.1	Cc1c(-c2nc3c(-c4ccc5c(c4)CCC[C@@H]5NC(=O)c4nc(C5(C)CC5)no4)ccnc3[nH]2)cnn1C1CCOCC1 [Compound 155, 3-(1-Methyl-cyclopropyl)-[1,2,4]oxadiazole-5-carboxylic acid ((S)-6-{2-[5-methyl-1-(tetrahydro-pyran-4-yl)-1H-pyrazol-4-yl]-3H-imidazo[4,5-b]pyridin-7-yl}-4-yl]-3H-imidazo[4,5-1,2,3,4-tetrahydro-naphthalen-1-yl)-amide]
< 0.001	0.001 to 0.01	0.001 to 0.01	Cc1c(-c2nc3c(-c4ccc5c(c4)CCCC[C@H]5NC(=O)c4nc(C(C)(C)C)no4)ccnc3[nH]2)cnn1C(C)C [Compound 160, 3-tert-Butyl-[1,2,4]oxadiazole-5-carboxylic acid {(R)-2-[2-(1-isopropyl-5-methyl-1H-pyrazol-4-yl)-3H-imidazo[4,5-b]pyridin-7-yl]-6,7,8,9-tetrahydro-5H-benzocyclohepten-5-yl}-amide]

Further lines, the compound ahead of its results:

SMILES	IC50 (full-length human BTK) [µM]	IC50 (Btk [1]) [µM]	IC50 (Btk [2]) [µM]
CCc1cc(-c2nc3c(-c4ccc5c(c4)CCCCC5NC(=O)c4nnc(C(C)(C)C)o4)ccnc3[nH]2)nn1C (stereo not drawn) [Compound 131, 5-tert-Butyl-[1,3,4]oxadiazole-2-carboxylic acid {2-[2-(5-ethyl-1-methyl-1H-pyrazol-3-yl)-3H-imidazo[4,5-b]pyridin-7-yl]-6,7,8,9-tetrahydro-5H-benzocyclohepten-5-yl}-amide]	< 0.001	0.001 to 0.01	0.01 to 0.1
CCc1cc(-c2nc3c(-c4ccc5c(c4)CCCCC5NC(=O)c4nc(C(C)(C)C)no4)ccnc3[nH]2)nn1C (stereo not drawn) [Compound 133, 3-tert-Butyl-[1,2,4]oxadiazole-5-carboxylic acid {2-[2-(5-ethyl-1-methyl-1H-pyrazol-3-yl)-3H-imidazo[4,5-b]pyridin-7-yl]-6,7,8,9-tetrahydro-5H-benzocyclohepten-5-yl}-amide]	< 0.001	0.001 to 0.01	0.001 to 0.01
Cc1nn(C2CCOCC2)c(C)c1-c1nc2c(-c3ccc4c(c3)CCCC4NC(=O)c3nc(C(C)(C)C)no3)ccnc2[nH]1 (stereo not drawn) [Compound 140, 3-tert-Butyl-[1,2,4]oxadiazole-5-carboxylic acid (6-{2-[3,5-dimethyl-1-(tetrahydro-pyran-4-yl)-1H-pyrazol-4-yl]-3H-imidazo[4,5-b]pyridin-7-yl}-1,2,3,4-tetrahydro-naphthalen-1-yl)-amide]	< 0.001	0.01 to 0.1	> 0.1
Cc1nn(C)c(C)c1-c1nc2c(-c3ccc4c(c3)CCCC[C@H]4NC(=O)c3nc(C(C)(C)C)no3)ccnc2[nH]1 [Compound 142, 3-tert-Butyl-[1,2,4]oxadiazole-5-carboxylic acid {(R)-2-[2-(1,3,5-trimethyl-1H-pyrazol-4-yl)-3H-imidazo[4,5-b]pyridin-7-yl]-6,7,8,9-tetrahydro-5H-benzocyclohepten-5-yl}-amide]	< 0.001	0.001 to 0.01	0.001 to 0.01
Cc1c(-c2nc3c(-c4ccc5c(c4)CCCC5NC(=O)c4noc(C(C)(C)C)n4)ccnc3[nH]2)cnn1C(C)C (stereo not drawn) [Compound 149, 5-tert-Butyl-[1,2,4]oxadiazole-3-carboxylic acid {6-[2-(1-isopropyl-5-methyl-1H-pyrazol-4-yl)-3H-imidazo[4,5-b]pyridin-7-yl]-1,2,3,4-tetrahydro-naphthalen-1-yl}-amide]	< 0.001	0.001 to 0.01	0.01 to 0.1
Cc1c(-c2nc3c(-c4ccc5c(c4)CCCC5NC(=O)c4noc(C(C)(C)C)n4)ccnc3[nH]2)cnn1C1CCOCC1 (stereo not drawn) [Compound 150, 5-tert-Butyl-[1,2,4]oxadiazole-3-carboxylic acid (6-{2-[5-methyl-1-(tetrahydro-pyran-4-yl)-1H-pyrazol-4-yl]-3H-imidazo[4,5-b]pyridin-7-yl}-1,2,3,4-tetrahydro-naphthalen-1-yl)-amide]	< 0.001	0.001 to 0.01	0.001 to 0.01
Cc1cc(-c2nc3c(-c4ccc5c(c4)CCCC[C@H]5NC(=O)c4nnc(C(C)(C)C)o4)ccnc3[nH]2)nn1C [Compound 153, 5-tert-Butyl-[1,3,4]oxadiazole-2-carboxylic acid {(R)-2-[2-(1,5-dimethyl-1H-pyrazol-3-yl)-3H-imidazo[4,5-b]pyridin-7-yl]-6,7,8,9-tetrahydro-5H-benzocyclohepten-5-yl}-amide]	< 0.001	0.001 to 0.01	0.001 to 0.01
Cc1c(-c2nc3c(-c4ccc5c(c4)CCC[C@@H]5NC(=O)c4noc(C(C)(C)C)n4)ccnc3[nH]2)cnn1C1CCOCC1 [Compound 157, 5-tert-Butyl-[1,2,4]oxadiazole-3-carboxylic acid ((S)-6-{2-[5-methyl-1-(tetrahydro-pyran-4-yl)-1H-pyrazol-4-yl]-3H-imidazo[4,5-b]pyridin-7-yl}-1,2,3,4-tetrahydro-naphthalen-1-yl)-amide]	< 0.001	0.001 to 0.01	0.001 to 0.01
Cc1c(-c2nc3c(-c4ccc5c(c4)CCC[C@H]5NC(=O)c4noc(C(C)(C)C)n4)ccnc3[nH]2)cnn1C(C)C [Compound 164, 5-tert-Butyl-[1,2,4]oxadiazole-3-carboxylic acid {(R)-6-[2-(1-isopropyl-5-methyl-1H-pyrazol-4-yl)-3H-imidazo[4,5-b]pyridin-7-yl]-1,2,3,4-tetrahydro-naphthalen-1-yl}-amide]	0.001 to 0.01	0.001 to 0.01	> 0.1
Cc1c(-c2nc3c(-c4ccc5c(c4)CCC[C@@H]5NC(=O)c4noc(C(C)(C)C)n4)ccnc3[nH]2)cnn1C(C)C [Compound 165, 5-tert-Butyl-[1,2,4]oxadiazole-3-carboxylic acid {(S)-6-[2-(1-isopropyl-5-methyl-1H-pyrazol-4-yl)-3H-imidazo[4,5-b]pyridin-7-yl]-1,2,3,4-tetrahydro-naphthalen-1-yl}-amide]	< 0.001	0.001 to 0.01	0.01 to 0.1
